Results: patent US9072729B2, “Method for treating fibrosis and cancer with imidazolium and imidazolinium compounds” (Agency for Science, Technology and Research, priority 2008, dated 2015)

How the values were obtained:
primary HSCs = experiment: Protection of primary HSCs from DMSO cytotoxicity; format: cell-based, Wistar rat; settings: DBZIM 100 μM, TDBZIM 50 μM
Method: FIG. 5. DBZIM and TDBZIM protected primary HSC cells against oxidative stress induced by 0.2% (v/v) of DMSO. (a) Optical images of cells treated with IMSs for 26 and 93 h. Scale bar=60 μm. 0.2% (v/v) of DMSO induced oxidative stress by depleting the total GSH level (b), inducing the GSSG level (c), reducing the GSH/GSSG ratio (d), and inducing GPX (e), CAT (f) and SOD (g) activity levels. The data were presented as mean and SEM, N=6, *^cP<0.005, and *^dP<0.0005; when compared to the untreated sample.
The isolation of primary HSCs from Wistar rat liver was performed primarily following the method provided in a previous report (Weiskirchen et al. 2005). Briefly, the supernatant of cell suspension after hepatocyte removal was washed and re-suspended in 9.5 ml of Gey's balance salt solution (GBSS), and mixed with 8 ml of 28.7% (w/v) Histodenz in GBSS. The gradient was prepared by laying the cell suspension underneath 6 ml of GBSS, and centrifuged in Histodenz gradient at 1400×g for 20 min. The stellate cells were separated into a fuzzy band just above the interface of the Histodenz solution and the aqueous buffer. The stellate cell band was harvested, washed, and 1×10^6 cells/well were seeded in a 6-well culture plate in Dulbecco modified Eagle's medium (DMEM) supplemented with 10% fetal bovine serum (FBS). The viability of the HSCs was >95% as determined by trypan blue exclusion staining, and the purity of the HSCs was >90% as assessed by glial fibrillary acidic protein (GFAP) positive staining in >200 cells counted. Primary HSCs were routinely cultured in DMEM with 10% FBS in a humidified CO2 incubator at 37° C., and split at 1:4 ratio by trypsinization (0.05% trypsin/0.53 mM ethylenediaminetetraacetic acid (EDTA)) when they grew to confluency. The HSC-T6 cell line was kindly provided by Dr. Scott Friedman of Mount Sinai School of Medicine, New York. A stable T6/GFAP-LacZ clonal cell line was established as previously reported (Maubach et al. 2006). HSC-T6 and T6/GFAP-LacZ cells were cultured in the same conditions as the primary HSCs.

TGF-β1 = experiment: Real-time RT-PCR of TGF-β1 mRNA in HSC T6 cells; format: cell-based, rat; settings: 48 h
Method: FIG. 9. DBZIM and TDBZIM suppressed TGF-β1 mRNA. HSC T6 cells were incubated with (a) DBZIM (1, 10, 100 and 300 μM) and (b) TDBZIM (1, 10 and 100 μM) for 48 h for the dosage-dependent study, and (c) with DBZIM (100 μM) and TDBZIM (100 μM) for 8, 24 and 48 h for the time-dependent study. The expression level of TGF-β1 mRNA was quantified with real-time RT-PCR. The data were presented as mean and SEM, N=6, *^aP<0.05, *^bP<0.01, *^cP<0.005, when compared to vehicle control.
Total RNA was isolated using NucleoSpin RNAII isolation kit (Nacherey & Nagel, Germany), and quantified by ND-100 spectrophotometer (Nanodrop Technologies, DE, USA). The details of real-time RT-PCR were reported elsewhere (Zhang et al. 2006). Briefly, it was a two-step real-time RT-PCR using Taqman chemistry. Total RNA was first reverse transcribed to cDNA, and real-time PCR was run and detected in ABI 7500 Fast Real-Time PCR System (Applied Biosystems, CA, USA). Primers and probes for rat GFAP, SMAA, collagen Ia1, fibronectin, TGF-β1, TGF-β receptor I (TGFβ RI) and IL-6 were ordered from Taqman's assay-on-demand database. Rat β-actin was used as normalization gene, and its expression level was constant (CT difference was <±0.5) throughout the experimental settings in this study. Relative quantification of target mRNA was calculated using comparative threshold cycle method (ΔΔCT) as described in User Bulletin #2 (ABI Prism 7700 Sequence Detection System). Relative quantification was given by 2^−ΔΔCT to express the up-regulation or down regulation of the target gene under the treatments compared to the control.

[1] = system: p53 signaling pathway-associated gene expression in HLE cells; experiment: Real-time PCR array of p53 signaling pathway-associated genes; format: cell-based, human; settings: 48 h; for increase of ATM gene expression vs control: IBN-19 90 uM, IBN-24 90 uM, IBN-25 40 uM
Method: FIG. 42. Real-Time PCR array analysis of p53 signaling pathway-associated gene expression. (A) Anti-apoptotic genes. (B) Growth inhibition gene SESN2. (C) Cell cycle check point genes. (D) Cell proliferation genes. (E) DNA repair gene ATM. The relative level of gene expression was normalized with housekeeping gene GAPDH. Values are expressed as mean±standard deviation.
Cells were seeded at a density of 4×10^5 cells per dish in 10 cm dishes. Next day, the cells were exposed to 90 uM of IBN-19, 90 uM of IBN-24, 40 uM of IBN-25 and 0.045% of DMSO (Dimethyl Sulphoxide) as the control. After 48 hrs, total RNAs were extracted from the cells using Nucleospin RNA II kit as per the manufacturer's istructions. RNA quality and yield were evaluated after spectrophotometer measurements.
The human apoptosis PCR array (RT^2 Profiler) was used to analyze mRNA levels of 84 key genes involved in apoptosis, in a 96-well format, according to the manufacturer's instructions (Super Array Bioscience). First-strand cDNA was synthesized with 1 μg of RNA by using a PCR array first strand-synthesis kit (C-03; Super array Bioscience). This kit uses reverse transcriptase (Power Script; Super array Bioscience) and a combination of random primers and oligo dT primers. The total volume of the reaction was 20 μL diluted to 100 μL. PCR reactions were performed using real-time PCR (79s00HT 96-well block with RT^2 Real-Time SYBR Green PCR master mix PA-012; Applied Biosystems Instruments 7500). The total volume of the PCR reaction was 25 μl. An equivalent of […] of RNA was applied to the PCR reaction. The thermocycler parameters were 95° C. for 10 minutes, followed by 40 cycles of 95° C. for 15 seconds and 60° C. for 1 minute. Relative changes in gene expression were calculated using the ΔΔCt (cycle threshold) method. An average of the number of cycles of the five housekeeping genes, GAPDH, Actin-β, β2m, Hprt1, and Rpl13d, was used to normalize the expression between samples. The expression data are presented as fold regulation. GAPDH gene expression levels were utilized as an internal control to normalize the data. Reported fold changes in expression are the ratios of treatment over control values.
To obtain more information on how the IMSs influence other gene expression in the HLE cells, 84 genes related to p53 signal transduction were profiled by using the RT^2 Profiler array (Super Array Bioscience) (FIG. 42A, B, C, D, E). The array includes keys genes relevant to p53, apoptosis, cell cycle, cell growth, proliferation, differentiation, and DNA repair.

Compound | cell survival in 0.2% (v/v) DMSO (primary HSCs; 26 h) | cell survival in 0.2% (v/v) DMSO (primary HSCs; over 93 h) | increase of ATM gene expression vs control [1] [folds] | further results
1,3,5-tris(4-methyl-imidazolium)-linked cyclophane.3Br [TDBZIM] | survived | remained viable and proliferated to confluency |  | inhibition of TGF-β1 mRNA (TGF-β1; regardless of dosage (1-100 μM)): ~23%
[Br-].c1ccc(Cn2cc[n+](Cc3ccccc3)c2)cc1 [DBZIM, 1,3-bisbenzylimidazolium bromide] | survived | most cells died |  | suppression of TGF-β1 mRNA (TGF-β1; 100 μM): 28%; suppression of TGF-β1 mRNA (TGF-β1; 300 μM): 33%
CC(=O)Oc1ccc(C[n+]2ccn(Cc3ccccc3)c2C)cc1.[Cl-] [IBN-19, 1-benzyl-3-(4-acetate-benzyl)-2-methyl-imidazolium chloride] |  |  | 36 | SESN2 gene expression [1]: markedly induced
Cc1ccc(C[n+]2ccn(Cc3ccccc3)c2)cc1.[Cl-] [IBN-24, 1-benzyl-3-(4-methylbenzyl)-imidazolium chloride] |  |  | 4.6 | anti-apoptotic gene BCl-2 expression [1]: significantly down regulated; cell proliferation genes (Mcl1, Egr1, Foxo3, Jun, Mdm4, Nf1, Prm1D, Sesn1, E2f11, Prkca, Brca1) [1]: significantly down regulated
